The record followed here is patent US20050129725A1, “Method of controlling pest and pest control agent” (KURARAY CO., LTD., priority 2002, published 2005).

Like-named read-outs stand apart in the source and are kept apart here.

Data set [1] concerns adult female Culex pipiens. The data set can be described thus: Repellent effect of treated wire net bags (mouse as blood source) on blood sucking by Culex pipiens. Format: in vivo. The conditions noted are these: summary of Experimental Example 1. The method, then:
A 20-mesh soft wire net was cut into 15×16 cm, folded into two, and open two sides (longitudinal and transverse sides) were folded to give a bag. Four of these bags were prepared. Farnesylacetone (mixing ratio:[…]/trans-trans form=15/50/35) was dissolved in ethanol at 0.2 wt % and 1 wt % and one wire net bag each was immersed in one of the obtained solutions for about 10 sec. The bag was taken out from the solution, and air-dried at room temperature for 30 min to give a farnesylacetone treated wire net bag. The wire net bag treated with farnesylacetone 0.2 wt % solution was taken as Example 1, and the wire net bag treated with farnesylacetone 1 wt % solution was taken as Example 2. […] The wire net bags of Examples 1 and 2 and Comparative Example 1 were evaluated in Experimental Example 1 for the repellent effect on adult female Culex pipiens using an untreated wire net bag as a control.
50 to 70 female adult Culex pipiens at 10-15 days after eclosion and having high blood sucking activity were released inside each of four adult raising cages (30×40×30 cm). […] As a blood sucking result, the number of the test Culex pipiens with swollen abdomen was counted at a certain time intervals after the start of the test, which number was divided by the number of test Culex pipiens to calculate a blood sucking rate (%). […]

A short description of data set [2]: Odor and discomfort of sampled farnesylacetone gas in human. Here is the method: (§1) Farnesylacetone (1 mL) was placed in a 50 mL sample bottle, and a large magnetic stirring bar capable of rotating the air as well was placed therein. The bottle was placed neck-deep in an oil bath at 130° C. with rotation, and heated for 1 hr to saturate the inside of the sample bottle with farnesylacetone vapor. Thereafter, the gas in the sample bottle was taken by 5 mL with a gas tight syringe, and using gas chromatography with an FID detector, the concentration of farnesylacetone was measured by the absolute calibration method.
as §1, with “placed therein” for “placed therein.”, “in a […]” for “in an oil”, “[…]” for “at 130°”, “to fill” for “to saturate”, “by an” for “by the”, “method. […] Almost simultaneously, the gas (5 mL) in the sample bottle was taken again, a propeller was set in a 10 L beaker, the gas was added into the sealed beaker, the air in the beaker was stirred with the propeller for 10 min to dilute the gas 2,000-fold, whereby gas containing […] farnesylacetone was obtained. […]” for “method.”

The test system of a further data set is Coptotermes formosanus. In kind it is in vivo. The conditions noted are these: for number of Coptotermes formosanus in test section: 30 ants in total; for number of Coptotermes formosanus in control section: untreated half of same schale. Here is the method: Three sets of experiment systems were prepared wherein quartz sand allowed to absorb a suitable amount of water was spread on a 90 mm diameter schale in a thickness of 1 mm, a 5 mm width groove was formed on a diameter line to divide the dish into two, three 8 mm diameter circular filters impregnated with a suitable amount of a solution of farnesylacetone or phytone in acetone and air-dried were placed in one test section, and three untreated circular filters were placed in the control section.
In each experiment system were each released 10 worker ants of Coptotermes formosanus and raised in an incubator at 28° C., humidity 70%. After a certain time, the number of Coptotermes formosanus in the test section and the control section was counted. The repellence rate and mortality were calculated from the following formulas. Repellence rate={1−(number of the ants in the test section/number of the survived ants)}×100 (%) Mortality=number of the dead ants/30×100 (%)

Data set [3] in a line: Measurement of farnesylacetone concentration in the air (gas chromatography, FID). Format: physicochemical. The following applies: 1 hr. Here is the method: Farnesylacetone (1 mL) was placed in a 50 mL sample bottle, and a large magnetic stirring bar capable of rotating the air as well was placed therein. […] Thereafter, the gas in the sample bottle was taken by 5 mL with a gas tight syringe, and using gas chromatography with an FID detector, the concentration of farnesylacetone was measured by the absolute calibration method.
as §1, with “placed therein” for “placed therein.”, “in a […]” for “in an oil”, “[…]” for “at 130°”, “to fill” for “to saturate”, “by an” for “by the”, “method. […] Almost simultaneously, the gas (5 mL) in the sample bottle was taken again, a propeller was set in a 10 L beaker, the gas was added into the sealed beaker, the air in the beaker was stirred with the propeller for 10 min to dilute the gas 2,000-fold, whereby gas containing […] farnesylacetone was obtained. […]” for “method.”

The next data set has as its system Blattella germanica. The data set can be described thus: Box shelter lurking place choice test with coated paper sheets. Format: in vivo. The following applies: summary of Experimental Example 2. The method, then:
A mixture of farnesylacetone (mixing ratio:cis-cis form/cis-trans form and trans-cis form/trans-trans form=15/50/35) and vitamin E (antioxidant) (weight ratio 99:1) was dissolved in methanol at 0.06 wt % and 0.3 wt %. The obtained solutions were coated on a 0.26 mm thick paper sheet at 167 g/l m^2, and air-dried to evaporate methanol, whereby sheets having a farnesylacetone coating at 0.1 g/m^2 and 0.5 g/m^2 were obtained and used as Example 3 and Example 4, respectively. Both a farnesylacetone coating sheet prepared on the very day and one left open and uncontrolled by hanging in a room at a room temperature of 21-24° C. for 2 weeks, where ventilation rate was 10-15 times per 1 hour, were evaluated in Experimental Examples 2-4 for repellence performance against the larvae of Blattella germanica, Camponotus japonicus and Anthrenus verbasci using untreated paper sheet as a control.
One box shelter (length 8 cm×side 12.5 cm×height 2 cm, made of white corrugated cardboard) having one entrance (width 1 cm×height 2 cm) and one of the test-day-made products of Example 3 and 4, the products left open and uncontrolled for 2 weeks of Example 3 and 4 and a control paper sheet, which was adhered to an interior floor surface, was prepared for each test sample. […]

The nature of data set [4]: Concentration of farnesylacetone in the dog kennel. In kind it is physicochemical. The conditions noted are these: kennel sprayed every week with 1% solution in ethanol; detection limit. Here is the method:
(§2) A dog raised in a dog kennel (vaporization area expanding means), the inside of which was sprayed every week with a 1% solution of farnesylacetone in ethanol with a spray container (reservoir means), and a dog raised in a dog kennel, the inside of which was sprayed every week with ethanol alone, were observed and compared for their behaviors for 30 min every day for one week. The dog raised in the farnesylacetone treated dog kennel scratched its body twice a day, but the dog raised in the dog kennel free of farnesylacetone treatment scratched its body 13 times a day. The concentration of farnesylacetone in the dog kennel was not more than 1 μg/L (detection limit). It is assumed that the fleas parasitic in dogs were repelled and decreased by farnesylacetone.

A further data set has as its system fleas parasitic in dogs. As to the kind of experiment: Scratching behaviour of dog raised in sprayed dog kennel. In kind it is in vivo. The following applies: kennel sprayed every week with 1% solution in ethanol; observed 30 min every day for one week. Here is the method: as §2

With `CCN(CC)C(=O)c1cccc(C)c1` [DEET, N,N-diethyl-m-tolamide, reference compound], the “course of repellent effect of treated wire net bag on Culex pipiens” value in data set [1] is “decreases with time”.
On to `CC(=O)CC/C=C(\C)CC/C=C(\C)CCC=C(C)C` [farnesylacetone], for which the “odor and effect of sampled gas on human” value in data set [2] (gas containing 20,000 μg/L) is “had a strong odor, caused cough when inhaled in a large amount, and provoked uncomfortable feeling in human”. Further, in data set [2] (gas further diluted 10-fold, printed as containing 0.01 μg/L), the “odor of sampled gas detected by human” value is “scarcely had an odor detected by human”. Also, the “death (number of the dead ants)” value is 1 in the data set with Coptotermes formosanus (concentration 1%, 1 day later); 1 with Coptotermes formosanus (concentration 1%, 4 days later); 2 in the data set on Coptotermes formosanus (concentration 5%, 1 day later); 3 in the data set with Coptotermes formosanus (concentration 5%, 4 days later). Besides, the repellence rate in the data set on Coptotermes formosanus (concentration 1%, 1 day later) is listed as 86%; with Coptotermes formosanus (concentration 1%, 4 days later) it was 100%; in the data set with Coptotermes formosanus (concentration 5%, 1 day later) it was 100%; with Coptotermes formosanus (concentration 5%, 4 days later), 96%. The “number of Coptotermes formosanus in test section” value (“number … in test section” for short) stood at 4 with Coptotermes formosanus (concentration 1%, 1 day later); 0 with Coptotermes formosanus (concentration 1%, 4 days later); 0 with Coptotermes formosanus (concentration 5%, 1 day later); 1 in the data set on Coptotermes formosanus (concentration 5%, 4 days later). Moreover, the “number of Coptotermes formosanus in control section” value (“number … in control section” for short) is reported as 25 with Coptotermes formosanus (concentration 1%, 1 day later); 29 in the data set on Coptotermes formosanus (concentration 1%, 4 days later); 28 in the data set with Coptotermes formosanus (concentration 5%, 1 day later); 26 in the data set with Coptotermes formosanus (concentration 5%, 4 days later). Further, the “concentration of farnesylacetone in the gas” value in data set [3] (sample bottle filled with vapor, water bath at 60° C.) was 20 µg/L; in data set [3] (sample bottle saturated with vapor, oil bath at 130° C.), 20,000 μg/L. The “time for which treated paper sheet maintained Blattella germanica control effect” value with Blattella germanica is listed as “at least 2 weeks”. Moreover, the “concentration of farnesylacetone in the dog kennel” value in data set [4] is recorded as “not more than 1 μg/L”. Moreover, in data set [1], the “course of repellent effect of treated wire net bag on Culex pipiens” value is “maintained at a high level even after 18 hr”. In addition, in the data set on fleas parasitic in dogs, the “dog scratched its body (times a day)” value is listed as “twice a day”.
Take `CC(=O)CCCC(C)CCCC(C)CCCC(C)C` (stereo not drawn) [phytone]: in the data set on Coptotermes formosanus (concentration 10%, 1 day later), the “death (number of the dead ants)” value is on record as 0, the repellence rate turned out to be 63%, the “number … in test section” value was 11 and the “number … in control section” value turned out to be 19. Also, in the data set on Coptotermes formosanus (concentration 50%, 1 day later), the “death (number of the dead ants)” value was 1, the repellence rate amounted to 86%, the “number … in test section” value is 4 and the “number … in control section” value is recorded as 25.
